Test results as given in patent US12139486B2, “Octahydro fused azadecalin glucocorticoid receptor modulators” (Corcept Therapeutics, Inc., priority 2013, dated 2024).

What was measured:
glucocorticoid receptor = molecular target: T1, glucocorticoid receptor (Homo sapiens, UniProt P04150); assay: HepG2 Tyrosine Aminotransferase (TAT) Assay; format: cell-based
T1 construct: endogenous in cells; host or cells: HepG2
T1 sequence (P04150 1-777): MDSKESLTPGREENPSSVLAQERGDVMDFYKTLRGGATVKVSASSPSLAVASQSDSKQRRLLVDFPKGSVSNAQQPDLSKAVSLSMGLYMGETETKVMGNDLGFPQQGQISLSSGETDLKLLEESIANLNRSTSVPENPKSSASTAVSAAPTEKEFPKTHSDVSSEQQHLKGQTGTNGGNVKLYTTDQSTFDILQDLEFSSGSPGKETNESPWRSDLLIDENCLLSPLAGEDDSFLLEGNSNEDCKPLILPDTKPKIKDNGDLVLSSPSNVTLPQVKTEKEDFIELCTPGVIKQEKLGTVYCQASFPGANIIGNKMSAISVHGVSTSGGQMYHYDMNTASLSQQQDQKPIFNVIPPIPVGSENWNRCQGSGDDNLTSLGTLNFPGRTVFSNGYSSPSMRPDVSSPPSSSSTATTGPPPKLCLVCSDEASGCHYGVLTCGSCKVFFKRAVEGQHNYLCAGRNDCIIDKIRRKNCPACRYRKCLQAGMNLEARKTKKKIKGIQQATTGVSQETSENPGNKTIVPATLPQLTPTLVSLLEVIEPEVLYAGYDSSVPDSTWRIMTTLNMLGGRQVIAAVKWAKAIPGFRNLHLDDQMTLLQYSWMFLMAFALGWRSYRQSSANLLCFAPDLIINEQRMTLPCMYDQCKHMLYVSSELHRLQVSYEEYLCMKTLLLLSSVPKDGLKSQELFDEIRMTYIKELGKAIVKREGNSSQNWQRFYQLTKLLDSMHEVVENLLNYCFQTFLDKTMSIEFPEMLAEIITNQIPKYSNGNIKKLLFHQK
Experimental: Glucocorticoid mediated activation of TAT occurs by transactivation of glucocorticoid response elements in the TAT promoter by glucocorticoid receptor-agonist complex.
HepG2 cells were cultured using MEME media supplemented with 10% (v/v) foetal bovine serum; 2 mM L-glutamine and 1% (v/v) NEAA at 37° C., 5%/95% (v/v) CO2/air.
Compounds were serially half log diluted in 100% (v/v) dimethylsulphoxide from a 10 mM stock.
HepG2 cells were then lysed with 30 μl of cell lysis buffer containing a protease inhibitor cocktail for 15 minutes at 4° C. […] After 2 hours incubation at 37° C. the reaction was terminated by the addition of 15 μl of 10 M aqueous potassium hydroxide solution, and the plates incubated for a further 30 minutes at 37° C.
[compound] and fitting the data to a 4 parameter logistic equation.

human recombinant GR = molecular target: T2, human recombinant GR (Homo sapiens, UniProt P04150); assay: Human Glucocorticoid Receptor (GR) Fluorescence Polarisation (FP) Binding Assay; settings: Ki from IC50 by ligand depletion correction; displacement of Fluorome GS Red
T2 construct: purchased PanVera P2812
T2 sequence (P04150 1-777): T1 sequence (P04150 1-777)
Experimental: The following is a description of a FP assay for measuring compound inhibition of labelled glucocorticoid binding to the human recombinant GR.
The binding affinity of test compounds was determined using a FP binding assay using human recombinant GR (PanVera P2812) and a fluorescent labelled glucocorticoid ligand (Fluorome GS Red) (PanVera P2894). The presence of inhibitors prevents the formation of a GS Red/GR complex resulting in a decrease in the measured polarisation value. The change in polarisation value in the presence of test compounds is used to calculate the binding affinity of the compound for GR.
This assay was performed in 384 well, black, round-bottom, polypropylene micro titre plates in a final volume of 20 μl. The assay contained 5 μl 1 nM GR (final concentration), 5 μl 0.5 nM Fluorome GS Red (final concentration) in the presence of 10p test compounds. Positive control wells (high polarisation) receive, 10 μl 2% (v:v) DMSO vehicle (1% (v/v) final concentration)+5 μl 1 nM GR and 5 μl 0.5 nM Fluorome GS Red. […] Assay blank background wells (used for normalisation) receive 15 μl 1×GS screening buffer+5 μl GR.
For the IC50 determination (concentration of compound that displaces 50% of the bound GS Red), compounds were tested at eight different concentrations in duplicate in two independently performed experiments. Compounds were prepared as solubilised solids at 10 mM in DMSO. On the day of assay, an 8 point half-log serial dilution (55 μl DMSO+25 μl compound solution) was prepared. A 1:50 dilution (1 μl compound solution+49 μl 1×GR screening buffer) was prepared for each compound. The compounds were prepared at 2× final assay concentration.
The plates were mixed and incubated for 4 hour at room temperature. FP was measured using an Envision Excite plate reader with 535 nm excitation and 590 nm emission interference filters.
Milli-polarisation (mP) values were calculated using the below equation: mP=1000*(S−G*P)/(S+G*P) where S and P are assay blank background subtracted fluorescence units, G=G-factor (1.07).
Compound IC50 values were calculated by plotting a [compound] v. % inhibition curve and fitting the data to a 4-parameter logistic fit equation.
10×GR screening buffer (100 mM potassium phosphate pH 7.4, 200 mM Na2MoO4, 1 mM EDTA, 20% (v/v) DMSO). To prepare 1×GR screening buffer, combine 1 ml 10×GR screening buffer (PanVera P2814)+1 ml stabilising peptide (PanVera P2815)+7.95 ml 4° C. MQ water. Add 50p 1M DTT, vortex and place on ice until use.

Ki (glucocorticoid receptor) [nM] | Ki (human recombinant GR) [nM] | SMILES
< 20 | < 0.5 | CC(C)n1ncc(S(=O)(=O)N2CC[C@H]3Cc4c(cnn4-c4ccc(F)cc4)C[C@]3(C(=O)c3cscn3)C2)n1 [Example 2AJ, ((4aR,8aS)-1-(4-fluorophenyl)-6-((2-isopropyl-2H-1,2,3-triazol-4-yl)sulfonyl)-4,4a,5,6,7,8,8a,9-octahydro-1H-pyrazolo[3,4-g]isoquinolin-4a-yl)(thiazol-4-yl)methanone]
20 to 100 | > 1 | O=C(c1ccccn1)[C@]12Cc3cnn(-c4ccc(F)cc4)c3C[C@@H]1CCN(S(=O)(=O)c1cccc(F)c1)C2 [Example 2F, ((4aR,8aS)-1-(4-fluorophenyl)-6-((3-fluorophenyl)sulfonyl)-4,4a,5,6,7,8,8a,9-octahydro-1H-pyrazolo[3,4-g]isoquinolin-4a-yl)(pyridin-2-yl)methanone]
20 to 100 | > 1 | Cn1cc(S(=O)(=O)N2CC[C@H]3Cc4c(cnn4-c4ccc(F)cc4)C[C@]3(C(=O)c3cc(C(F)(F)F)ccn3)C2)nn1 [Example 2P, ((4aR,8aS)-1-(4-fluorophenyl)-6-((1-methyl-1H-1,2,3-triazol-4-yl)sulfonyl)-4,4a,5,6,7,8,8a,9-octahydro-1H-pyrazolo[3,4-g]isoquinolin-4a-yl)(4-(trifluoromethyl)pyridin-2-yl)methanone]
< 20 | < 0.5 | Cc1ccnc(C(=O)[C@]23Cc4cnn(-c5ccc(F)cc5)c4C[C@@H]2CCN(S(=O)(=O)c2cnn(C)n2)C3)c1 [Example 2R, ((4aR,8aS)-1-(4-fluorophenyl)-6-((2-methyl-2H-1,2,3-triazol-4-yl)sulfonyl)-4,4a,5,6,7,8,8a,9-octahydro-1H-pyrazolo[3,4-g]isoquinolin-4a-yl)(4-methylpyridin-2-yl)methanone]
20 to 100 | 0.5 to 1 | O=C(c1ccccn1)[C@]12Cc3cnn(-c4ccc(F)cc4)c3C[C@@H]1CCN(S(=O)(=O)c1ccc(C(F)(F)F)cc1)C2 [Example 1A, ((4aR,8aS)-1-(4-fluorophenyl)-6-((4-(trifluoromethyl)phenyl)sulfonyl)-4,4a,5,6,7,8,8a,9-octahydro-1H-pyrazolo[3,4-g]isoquinolin-4a-yl)(pyridin-2-yl)methanone]
> 100 | > 1 | O=C(c1cc(C(F)(F)F)ccn1)[C@]12Cc3cnn(-c4ccc(F)cc4)c3C[C@@H]1CCN(S(=O)(=O)c1cn[nH]n1)C2 [Example 2AE, ((4aR,8aS)-6-((2H-1,2,3-triazol-4-yl)sulfonyl)-1-(4-fluorophenyl)-4,4a,5,6,7,8,8a,9-octahydro-1H-pyrazolo[3,4-g]isoquinolin-4a-yl)(4-(trifluoromethyl)pyridin-2-yl)methanone]
< 20 | 0.5 to 1 | O=C(c1cscn1)[C@]12Cc3cnn(-c4ccc(F)cc4)c3C[C@@H]1CCN(S(=O)(=O)c1cccc(C(F)(F)F)n1)C2 [Example 2AH, ((4aR,8aS)-1-(4-fluorophenyl)-6-((6-(trifluoromethyl)pyridin-2-yl)sulfonyl)-4,4a,5,6,7,8,8a,9-octahydro-1H-pyrazolo[3,4-g]isoquinolin-4a-yl)(thiazol-4-yl)methanone]
20 to 100 | > 1 | Cn1ncc(S(=O)(=O)N2CC[C@H]3Cc4c(cnn4-c4ccc(F)cc4)C[C@]3(C(=O)c3ccccn3)C2)n1 [Example 2AC, ((4aR,8aS)-1-(4-fluorophenyl)-6-((2-methyl-2H-1,2,3-triazol-4-yl)sulfonyl)-4,4a,5,6,7,8,8a,9-octahydro-1H-pyrazolo[3,4-g]isoquinolin-4a-yl)(pyridin-2-yl)methanone]
20 to 100 | > 1 | Cn1cc(S(=O)(=O)N2CC[C@H]3Cc4c(cnn4-c4ccc(F)cc4)C[C@]3(C(=O)c3cc(C(F)(F)F)ccn3)C2)cn1 [Example 2H, ((4aR,8aS)-1-(4-fluorophenyl)-6-((1-methyl-1H-pyrazol-4-yl)sulfonyl)-4,4a,5,6,7,8,8a,9-octahydro-1H-pyrazolo[3,4-g]isoquinolin-4a-yl)(4-(trifluoromethyl)pyridin-2-yl)methanone]
